Laboratory results: patent US6248738A, “Isoquinolines as urokinase inhibitors” (Pfizer Inc., priority 1997, dated 2001)

Experiments:
tumour metastasis = conditions: literature; cited from earlier work
[1] = test system: angiogenesis/capillary network formation; conditions: literature; cited from earlier work
human urokinase = biological target: T1, human urokinase (Homo sapiens, UniProt P00749); experiment: Inhibition of human urokinase (HMWT human urokinase, substrate S-2444); type: biochemical; conditions: S-2444 substrate, read-out: Ki uPA
T1 construct: the urokinase used was HMWT Human Urokinase (Calbiochem 672081); purchased Calbiochem 672081

human tPA = human tPA (Homo sapiens, UniProt P00750); experiment: Inhibition of human tPA (substrate S-2288, tPA stimulator); type: biochemical; conditions: selectivity for uPA over human tPA
Sequence of human tPA (P00750 33-562): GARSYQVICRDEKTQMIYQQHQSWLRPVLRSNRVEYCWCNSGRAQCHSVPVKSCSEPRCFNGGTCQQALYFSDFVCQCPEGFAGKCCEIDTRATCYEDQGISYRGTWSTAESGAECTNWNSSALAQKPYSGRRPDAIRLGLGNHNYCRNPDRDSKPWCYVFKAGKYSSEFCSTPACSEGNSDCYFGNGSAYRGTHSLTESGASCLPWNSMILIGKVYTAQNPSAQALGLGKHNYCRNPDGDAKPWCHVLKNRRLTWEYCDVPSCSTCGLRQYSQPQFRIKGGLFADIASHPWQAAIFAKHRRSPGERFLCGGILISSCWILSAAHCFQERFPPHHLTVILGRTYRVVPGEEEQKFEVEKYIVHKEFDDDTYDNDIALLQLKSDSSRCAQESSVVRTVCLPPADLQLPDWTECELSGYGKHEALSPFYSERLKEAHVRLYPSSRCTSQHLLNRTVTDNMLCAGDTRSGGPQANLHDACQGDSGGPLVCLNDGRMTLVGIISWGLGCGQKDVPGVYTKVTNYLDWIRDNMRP

human plasmin = human plasmin (Homo sapiens, UniProt P00747); experiment: Inhibition of human plasmin (substrate Chromozym-PL); type: biochemical; conditions: selectivity for uPA over human plasmin
Sequence of human plasmin (P00747 97-810): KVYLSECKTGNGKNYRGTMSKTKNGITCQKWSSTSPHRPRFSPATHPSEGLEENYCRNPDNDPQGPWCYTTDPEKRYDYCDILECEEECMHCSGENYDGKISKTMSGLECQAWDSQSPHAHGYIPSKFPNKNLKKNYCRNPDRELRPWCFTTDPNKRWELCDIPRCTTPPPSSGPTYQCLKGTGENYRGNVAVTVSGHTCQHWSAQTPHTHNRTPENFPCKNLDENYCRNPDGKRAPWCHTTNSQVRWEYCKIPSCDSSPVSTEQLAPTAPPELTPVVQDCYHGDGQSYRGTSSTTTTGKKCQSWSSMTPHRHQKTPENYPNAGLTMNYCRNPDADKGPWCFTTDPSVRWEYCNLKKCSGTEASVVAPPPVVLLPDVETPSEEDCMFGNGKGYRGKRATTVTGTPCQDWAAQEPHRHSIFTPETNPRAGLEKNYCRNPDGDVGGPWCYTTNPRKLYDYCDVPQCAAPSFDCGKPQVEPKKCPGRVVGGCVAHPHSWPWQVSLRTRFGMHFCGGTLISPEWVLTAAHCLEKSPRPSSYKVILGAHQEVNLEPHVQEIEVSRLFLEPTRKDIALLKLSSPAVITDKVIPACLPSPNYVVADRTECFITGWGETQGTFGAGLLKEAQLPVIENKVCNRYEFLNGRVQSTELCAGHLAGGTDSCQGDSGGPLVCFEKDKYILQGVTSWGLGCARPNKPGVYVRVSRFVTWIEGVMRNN

SMILES	inhibition of tumour metastasis/invasion in vivo (tumour metastasis)	inhibition of angiogenesis/capillary network formation in vitro [1]	Ki (human urokinase) [nM]	vs. tPA* (selectivity figures) (human tPA)	vs. plasmin* (selectivity figures) (human plasmin)
N=C(N)NC(=O)c1nc(Cl)c(N)nc1N [Amiloride]	inhibit tumour metastasis in vivo	angiogenesis/capillary network formation in vitro	–	–	–
NC(N)=Nc1nccc2ccc(Br)cc12 [Example 15]	–	–	249	380	204
NC(N)=Nc1nccc2ccc(/C=C/c3ccccc3)cc12 [Example 19]	–	–	400	88	68
